Experiments:
[1] = tested on: Puccinia recondita f. Sp. Tritici; experiment: Fungicidal activity against Puccinia recondita f. sp. tritici / wheat / leaf disc preventative (brown rust); assay type: in vivo; conditions: foliar, 200 ppm in the applied formulation, wheat leaf segments, preventative, compared to untreated control leaf disks, read-out: disease control
Method in brief: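 Preventative leaf-segment test, wheat cv. Kanzler on water agar. Spray compound at 200 ppm, inoculate with spores 1 day later; 19° C., 75% rh, 12/12 h light. Read-out: % disease control vs untreated, 7 to 9 days after application.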

[2] = tested on: Puccinia recondita f. Sp. Tritici; experiment: Fungicidal activity against Puccinia recondita f. sp. tritici / wheat / leaf disc curative (brown rust); assay type: in vivo; conditions: foliar, 24 h, 200 ppm in the applied formulation, wheat leaf segments, curative (applied 1 day after inoculation), compared to untreated control leaf disks, read-out: disease control
Method in brief: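 Scoring is percent disease control relative to untreated segments, made 6 to 8 days after treatment. Wheat (cv. Kanzler) leaf segments received the formulated, water-diluted compound one day post-inoculation with spores, having been kept dark at 19° C and 75% RH, then incubated under 12 h light/12 h dark at the same temperature and humidity.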

[3] = tested on: Glomerella lagenarium (Colletotrichum lagenarium); experiment: Fungicidal activity against Glomerella lagenarium (Colletotrichum lagenarium) liquid culture / cucumber / preventative (anthracnose); assay type: cell-based; conditions: Colletotrichum orbiculare; 20 ppm in the applied formulation; liquid culture (PDB), growth inhibition measured photometrically after 3 to 4 days; compared to untreated control; read-out: disease control
Method in brief: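 Photometric read-out of fungal growth after 2–7 days, expressed as percent antifungal activity versus untreated check. Cryo-stored conidia in PDB; compound at 20 ppm; dark, 24 °C, 96% RH.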

C#CC(=O)N(Cc1ccc(-c2noc(C(F)(F)F)n2)cc1)C(C)CC (stereo not drawn) [Compound 1.391, N-sec-butyl-N-[[4-[5-(trifluoromethyl)-1,2,4-oxadiazol-3-yl]phenyl]methyl]-prop-2-ynamide]
≥ 80%: pest or weed control at 200 ppm [1] | pest or weed control at 200 ppm [2] | inhibition of growth at 20 ppm [3]

COCCN(Cc1ccc(-c2noc(C(F)(F)F)n2)cc1)C(=O)CC(C)C [Compound 1.336, N-(2-methoxyethyl)-3-methyl-N-[[4-[5-(trifluoromethyl)-1,2,4-oxadiazol-3-yl]phenyl]methyl]-butanamide]
≥ 80%: pest or weed control at 200 ppm [1] | pest or weed control at 200 ppm [2] | inhibition of growth at 20 ppm [3]

CCN(Cc1ccc(-c2noc(C(F)(F)F)n2)cc1)C(=O)N(C)C1CCC1 [Compound 3.101, 1-cyclobutyl-3-ethyl-1-methyl-3-[[4-[5-(trifluoromethyl)-1,2,4-oxadiazol-3-yl]phenyl]methyl]urea]
≥ 80%: pest or weed control at 200 ppm [1] | pest or weed control at 200 ppm [2] | inhibition of growth at 20 ppm [3]

CCN(Cc1ccc(-c2noc(C(F)(F)F)n2)cc1)C(=O)CNC(C)=O [Compound 1.501, 2-acetamido-N-ethyl-N-[[4-[5-(trifluoromethyl)-1,2,4-oxadiazol-3-yl]phenyl]methyl]-acetamide]
≥ 80%: pest or weed control at 200 ppm [1] | pest or weed control at 200 ppm [2] | inhibition of growth at 20 ppm [3]

CCOC(=O)CN(C)C(=O)N(C)Cc1ccc(-c2noc(C(F)(F)F)n2)cc1 [Compound 3.73, ethyl 2-[methyl-[methyl-[[4-[5-(trifluoromethyl)-1,2,4-oxadiazol-3-yl]phenyl]methyl]-carbamoyl- ]amino]acetate]
≥ 80%: pest or weed control at 200 ppm [1] | pest or weed control at 200 ppm [2] | inhibition of growth at 20 ppm [3]

CCC(COC)C(=O)N(Cc1ccc(-c2noc(C(F)(F)F)n2)cc1)CC1CC1 (stereo not drawn) [Compound 1.237, N-(cyclopropylmethyl)-2-(methoxymethyl)-N-[[4-[5-(trifluoromethyl)-1,2,4-oxadiazol-3-yl]phenyl]methyl]-butanamide]
≥ 80%: pest or weed control at 200 ppm [1] | pest or weed control at 200 ppm [2] | inhibition of growth at 20 ppm [3]

O=C(C1OCCO1)N(Cc1ccc(-c2noc(C(F)(F)F)n2)cc1)Cc1ccco1 [Compound 1.473, N-(2-furylmethyl)-N-[[4-[5-(trifluoromethyl)-1,2,4-oxadiazol-3-yl]phenyl]methyl]-1,3-dioxolane-2-carboxamide]
≥ 80%: pest or weed control at 200 ppm [1] | pest or weed control at 200 ppm [2] | inhibition of growth at 20 ppm [3]

O=C(C1CC1)N(Cc1ccc(-c2noc(C(F)(F)F)n2)cc1)Cc1ccco1 [Compound 1.474, N-(2-furylmethyl)-N-[[4-[5-(trifluoromethyl)-1,2,4-oxadiazol-3-yl]phenyl]methyl]-cyclopropane-carboxamide]
≥ 80%: pest or weed control at 200 ppm [1] | pest or weed control at 200 ppm [2] | inhibition of growth at 20 ppm [3]

C#CCN(C)C(=O)N(C)Cc1ccc(-c2noc(C(F)(F)F)n2)cc1 [Compound 3.77, 1,3-dimethyl-1-prop-2-ynyl-3-[[4-[5-(trifluoromethyl)-1,2,4-oxadiazol-3-yl]phenyl]methyl]urea]
≥ 80%: pest or weed control at 200 ppm [1] | pest or weed control at 200 ppm [2] | inhibition of growth at 20 ppm [3]

CN(Cc1ccc(-c2noc(C(F)(F)F)n2)cc1)C(=O)N(C)CC1CC1 [Compound 3.83, 1-(cyclopropylmethyl)-1,3-dimethyl-3-[[4-[5-(trifluoromethyl)-1,2,4-oxadiazol-3-yl]phenyl]methyl]urea]
≥ 80%: pest or weed control at 200 ppm [1] | pest or weed control at 200 ppm [2] | inhibition of growth at 20 ppm [3]

CC=CC(=O)N(CCOC)Cc1ccc(-c2noc(C(F)(F)F)n2)cc1 [Compound 1.326, N-(2-methoxyethyl)-N-[[4-[5-(trifluoromethyl)-1,2,4-oxadiazol-3-yl]phenyl]methyl]but-2-enamide]
≥ 80%: pest or weed control at 200 ppm [1] | pest or weed control at 200 ppm [2] | inhibition of growth at 20 ppm [3]

COCC(=O)N(Cc1ccc(-c2noc(C(F)(F)F)n2)cc1)Cc1ccco1 [Compound 1.459, N-(2-furylmethyl)-2-methoxy-N-[[4-[5-(trifluoromethyl)-1,2,4-oxadiazol-3-yl]phenyl]methyl]-acetamide]
≥ 80%: pest or weed control at 200 ppm [1] | pest or weed control at 200 ppm [2] | inhibition of growth at 20 ppm [3]

C=C(C)C(=O)N(Cc1ccc(-c2noc(C(F)(F)F)n2)cc1)CC1CCCO1 (stereo not drawn) [Compound 1.433, 2-methyl-N-(tetrahydrofuran-2-ylmethyl)-N-[[4-[5-(trifluoromethyl)-1,2,4-oxadiazol-3-yl]phenyl]methyl]-prop-2-enamide]
≥ 80%: pest or weed control at 200 ppm [1] | pest or weed control at 200 ppm [2] | inhibition of growth at 20 ppm [3]

CCN(Cc1ccc(-c2noc(C(F)(F)F)n2)cc1)C(=O)N(C)C1COC1 [Compound 3.91, 1-ethyl-3-methyl-3-(oxetan-3-yl)-1-[[4-[5-(trifluoromethyl)-1,2,4-oxadiazol-3-yl]phenyl]methyl]urea]
≥ 80%: pest or weed control at 200 ppm [1] | pest or weed control at 200 ppm [2] | inhibition of growth at 20 ppm [3]

CCCON(Cc1ccc(-c2noc(C(F)(F)F)n2)cc1)C(=O)C(C)CC (stereo not drawn) [Compound 1.308, 2-methyl-N-propoxy-N-[[4-[5-(trifiuoromethyl)-1,2,4-oxadiazol-3-yl]phenyl]methyl]-butanamide]
≥ 80%: pest or weed control at 200 ppm [1] | pest or weed control at 200 ppm [2] | inhibition of growth at 20 ppm [3]

CN(Cc1ccc(-c2noc(C(F)(F)F)n2)cc1)C(=O)N1CCCC1 [Compound 3.74, N-methyl-N-[[4-[5-(trifluoromethyl)-1,2,4-oxadiazol-3-yl]phenyl]methyl]-pyrrolidine-1-carboxamide]
≥ 80%: pest or weed control at 200 ppm [1] | pest or weed control at 200 ppm [2] | inhibition of growth at 20 ppm [3]

CCOC(=O)CN(C)C(=O)N(CC)Cc1ccc(-c2noc(C(F)(F)F)n2)cc1 [Compound 3.92, ethyl 2-[[ethyl-[[4-[5-(trifluoromethyl)-1,2,4-oxadiazol-3-yl]phenyl]methyl]-carbamoyl]-methyl-amino]acetate]
≥ 80%: pest or weed control at 200 ppm [1] | pest or weed control at 200 ppm [2] | inhibition of growth at 20 ppm [3]

O=C(C1CC1)N(Cc1ccc(-c2noc(C(F)(F)F)n2)cc1)CC1CCCO1 (stereo not drawn) [Compound 1.450, N-(tetrahydrofuran-2-ylmethyl)-N-[[4-[5-(trifluoromethyl)-1,2,4-oxadiazol-3-yl]phenyl]methyl]-cyclopropane-carboxamide]
≥ 80%: pest or weed control at 200 ppm [1] | pest or weed control at 200 ppm [2] | inhibition of growth at 20 ppm [3]

CON(Cc1ccc(-c2noc(C(F)(F)F)n2)cc1)C(=O)C(C)NC(C)=O (stereo not drawn) [Compound 1.795, 2-acetamido-N-methoxy-N-[[4-[5-(trifluoromethyl)-1,2,4-oxadiazol-3-yl]phenyl]methyl]-propanamide]
≥ 80%: pest or weed control at 200 ppm [1] | pest or weed control at 200 ppm [2] | inhibition of growth at 20 ppm [3]

CCCCC(=O)N(CCOC)Cc1ccc(-c2noc(C(F)(F)F)n2)cc1 [Compound 1.366, N-(2-methoxyethyl)-N-[[4-[5-(trifluoromethyl)-1,2,4-oxadiazol-3-yl]phenyl]methyl]-pentanamide]
≥ 80%: pest or weed control at 200 ppm [1] | pest or weed control at 200 ppm [2] | inhibition of growth at 20 ppm [3]

COCCOCC(=O)N(Cc1ccc(-c2noc(C(F)(F)F)n2)cc1)CC1CCCO1 (stereo not drawn) [Compound 1.427, 2-(2-methoxyethoxy)-N-(tetrahydrofuran-2-ylmethyl)-N-[[4-[5-(trifluoromethyl)-1,2,4-oxadiazol-3-yl]phenyl]methyl]-acetamide]
≥ 80%: pest or weed control at 200 ppm [1] | pest or weed control at 200 ppm [2] | inhibition of growth at 20 ppm [3]

Source: patent US11180462B2, “Microbiocidal oxadiazole derivatives” (SYNGENTA PARTICIPATIONS AG, priority 2015, dated 2021)
